Reference: US9827198B2, “Pharmaceutical dosage forms comprising sodium-1-[6-(morpholin-4-yl)pyrimidin-4-yl]-4-(1H-1,2,3-triazol-1-yl)-1H-pyrazol-5-olate” (Bayer Pharma Aktiengesellschaft, priority 2013, dated 2017)
Structures can show the parent of a compound that is named as a salt.

Legend:
Format in all cases: physicochemical
[1] = Solubility of active ingredient salts in water
[2] = Effect of light on active ingredient (I) or tablet cores; settings: active ingredient (I) or the tablet cores
[3] = Compatibility with polyethylene glycol used in the film coating; settings: at high active ingredient concentrations
[4] = Stability with respect to uptake or release of water under varying atmospheric humidity; settings: varying conditions of atmospheric humidity; compared with compound of the formula (II)

For `[Al+3].[O-]c1c(-n2ccnn2)cnn1-c1cc(N2CCOCC2)ncn1.[O-]c1c(-n2ccnn2)cnn1-c1cc(N2CCOCC2)ncn1.[O-]c1c(-n2ccnn2)cnn1-c1cc(N2CCOCC2)ncn1` [Aluminium salt], the “Solubility in water at 25° C.” value [1] was 6 mg/100 mL.
With `Oc1c(-n2ccnn2)cnn1-c1cc(N2CCOCC2)ncn1` [Sodium salt (active ingredient (I)), sodium 1-[6-(morpholin-4-yl)pyrimidin-4-yl]-4-(1H-1,2,3-triazol-1-yl)-1H-pyrazol-5-olate] the Effect of light [2] was “brown discolouration”, the “Compatibility with polyethylene glycol used in the film coating” value [3] was “physical incompatibility with polyethylene glycol” and the “Stability with respect to uptake or release of water” value [4] was “significantly higher stability with respect to uptake or release of water”. The solubility ([1]; 25° C.) was 26.2 mg/mL.
